Structures can show the parent of a compound that is named as a salt.

Here are results for 14 molecules from patent US20090239845A1, “PYRAZOLE COMPOUNDS AS PROSTAGLANDIN RECEPTORS LIGANDS” (priority 2005, published 2009).

The target of one assay is T1, human EP3 receptor (Homo sapiens, UniProt P43115).
T1 construct: expressed in transfected cells; host or cells: CHO-K1
T1 sequence (P43115 1-390): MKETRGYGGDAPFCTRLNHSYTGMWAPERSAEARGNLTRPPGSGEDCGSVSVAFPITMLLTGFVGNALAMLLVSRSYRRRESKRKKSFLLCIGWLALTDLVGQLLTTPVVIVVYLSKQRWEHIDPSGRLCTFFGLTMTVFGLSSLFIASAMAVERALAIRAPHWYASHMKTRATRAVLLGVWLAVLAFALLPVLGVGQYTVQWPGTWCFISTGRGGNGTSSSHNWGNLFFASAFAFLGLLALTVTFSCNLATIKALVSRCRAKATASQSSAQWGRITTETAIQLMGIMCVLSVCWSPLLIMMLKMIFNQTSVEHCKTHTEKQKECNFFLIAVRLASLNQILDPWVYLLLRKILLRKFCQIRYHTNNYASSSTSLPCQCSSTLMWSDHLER
Nature of the assay: human EP3 calcium mobilisation assay. Type of assay: cell-based. The settings on record: negative logarithm10 of the antagonist dissociation constant; CHO-K1 cells, PGE2; free bases or sodium salts; averages of a number of experiments; read-out: functional pKi value (converted). As to the method: Briefly, the antagonist properties of compounds are assessed by their ability to inhibit the mobilisation of intracellular calcium ([Ca^2+]i) in response to activation of EP1 or EP3 receptors by the natural agonist hormone prostaglandin E2 (PGE2). Increasing concentrations of antagonist reduce the amount of calcium that a given concentration of PGE2 can mobilise. The net effect is to displace the PGE2 concentration-effect curve to higher concentrations of PGE2. The amount of calcium produced is assessed using a calcium-sensitive fluorescent dye such as Fluo-4, AM and a suitable instrument such as a Fluorimetric Imaging Plate Reader (FLIPR). Increasing amounts of [Ca^2+]i produced by receptor activation increase the amount of fluorescence produced by the dye and give rise to an increasing signal. The signal may be detected using the FLIPR instrument and the data generated may be analysed with suitable curve-fitting software.
The human EP1 or EP3 calcium mobilisation assay (hereafter referred to as ‘the calcium assay’) utilises Chinese hamster ovary-K1 (CHO-K1) cells into which a stable (pCIN; BioTechniques 20 (1996): 102-110) vector containing either EP1 or EP3 cDNA has previously been transfected. Cells are cultured in suitable flasks containing culture medium such as DMEM:F-12 supplemented with 10% v/v foetal calf serum, 2 mM L-glutamine, 0.25 mg/ml geneticin, 100 μM flurbiprofen and 10 μg/ml puromycin.
For assay, cells are harvested using a proprietary reagent that dislodges cells such as Versene. Cells are re-suspended in a suitable quantity of fresh culture media for introduction into a 384-well plate. Following incubation for 24 hours at 37° C. the culture media is replaced with a medium containing Fluo-4 and the detergent pluronic acid, and a further incubation takes place. Concentrations of compounds are then added to the plate in order to construct concentration-effect curves. This may be performed on the FLIPR in order to assess the agonist properties of the compounds. Concentrations of PGE2 are then added to the plate in order to assess the antagonist properties of the compounds.
The data so generated may be analysed by means of a computerised curve-fitting routine. The concentration of compound that elicits a half-maximal inhibition of the calcium mobilisation induced by PGE2 (plC50) may then be estimated.
Background: Calcium assays in cells follow changes in intracellular calcium, usually with a dye or a luminescent sensor.

The test system of assay [1] is rat model of chronic constriction injury. The settings on record: Anesthesia and Analgesia 2001, 93, 1012-7; cited from earlier work.
Assay [2] concerns rodent model of post-operative pain. To be noted: Anesthesia and Analgesia 2001, 92, 233-238; cited from earlier work.
Assay [3] concerns gastric lesions induced by taurocholate acid, aspirin or indomethacin. The settings on record: rats, J Pharmacol Exp Ther 1992, 263(1), 374-380; cited from earlier work.

As for `Cc1cc(-c2cn3ccccc3n2)nn1Cc1cc(Cl)ccc1OCC(C)C` [Example 364, 2-[1-({5-Chloro-2-[(2-methylpropyl)oxy]phenyl}methyl)-5-methyl-1H-pyrazol-3-yl]imidazo[1,2-a]pyridine hydrochloride], the Ki on human EP3 receptor was 158 to 316 nM.

As to `Cc1cc(Cl)ccc1S(=O)(=O)NC[C@H]1C2CCC(CC2)[C@@H]1/C=C\CCCC(=O)O` [ONO-8711], in assay [1], the hyperalgesia and allodynia result is “reduces hyperalgesia and allodynia”. Further, the mechanical hyperalgesia result in assay [2] is recorded as “inhibits mechanical hyperalgesia”.

For `Cc1cc(N2Cc3ccccc3C2=O)nn1Cc1cc(Cl)ccc1OCC(C)C` [Example 184, 2-[1-({5-Chloro-2-[(2-methylpropyl)oxy]phenyl}methyl)-5-methyl-1H-pyrazol-3-yl]-2,3-dihydro-1H-isoindol-1-one], the Ki on human EP3 receptor was 158 to 316 nM.

For the molecule `Cc1cc(N(C)C(=O)c2ccccc2)nn1Cc1cc(Cl)ccc1OCc1ccccc1` [Example 180, N-[1-({5-Chloro-2-[(phenylmethyl)oxy]phenyl}methyl)-5-methyl-1H-pyrazol-3-yl]-N-methylbenzamide], the Ki at human EP3 receptor is 158 to 316 nM.

With `Cc1cc(NC(=O)C(F)(F)F)nn1Cc1cc(Cl)ccc1OCC(C)C` [Example 95, N-[1-({5-Chloro-2-[(2-methylpropyl)oxy]phenyl}methyl)-5-methyl-1H-pyrazol-3-yl]-2,2,2-trifluoroacetamide], the Ki on human EP3 receptor is 158 to 316 nM.

Take `Cc1cc(NC(=O)c2ccccc2CO)nn1Cc1cc(Cl)ccc1OCC(C)C` [Example 183, N-[1-({5-Chloro-2-[(2-methylpropyl)oxy]phenyl}methyl)-5-methyl-1H-pyrazol-3-yl]-2-(hydroxymethyl)benzamide]: the Ki at human EP3 receptor was 158 to 316 nM.

In the case of `Cc1cc(NC(=O)c2cccc(C=O)c2)nn1Cc1cc(Cl)ccc1OCC(C)C` [Example 187, N-[1-({5-Chloro-2-[(2-methylpropyl)oxy]phenyl}methyl)-5-methyl-1H-pyrazol-3-yl]-3-formylbenzamide], the Ki at human EP3 receptor was 158 to 316 nM.

Turning to `Cc1cc(N(C)C(=O)OC(C)(C)C)nn1Cc1cc(Cl)ccc1OCc1ccccc1` [Example 75, 1,1-Dimethylethyl[({5-chloro-2-[(phenylmethyl)oxy]phenyl}methyl)-5-methyl-1H-pyrazol-3-yl]methylcarbamate], the Ki on human EP3 receptor is 158 to 316 nM.

Regarding `O=C(O)CCc1ccccc1CC1C2CCC(O2)C1c1nc(C(=O)NCCCCC2CCCCC2)co1` (stereo not drawn) [SQ 33961], the gastric lesions result in assay [3] is recorded as “inhibit gastric lesions”.

In the case of `CCOC(CNC(=O)c1cc(C)n(Cc2cc(Cl)ccc2OCC(C)C)n1)OCC` [Example 387, N-[2,2-Bis(ethyloxy)ethyl]-1-({5-chloro-2-[(2-methylpropyl)oxy]phenyl}methyl)-5-methyl-1H-pyrazole-3-carboxamide], the Ki on human EP3 receptor was 158 to 316 nM.

Turning to `CCC(C)NC(=O)Oc1cc(C)n(Cc2cc(Cl)ccc2OCC(C)C)n1` (stereo not drawn) [Example 50, 1-({5-Chloro-2-[(2-methylpropyl)oxy]phenyl}methyl)-5-methyl-1H-pyrazol-3-yl (1-methylpropyl)carbamate], the Ki on human EP3 receptor was 158 to 316 nM.

With `O=C(O)Cc1ccc(CCNS(=O)(=O)c2ccc(Cl)cc2)cc1` [BM 13505], in assay [3], the gastric lesions entry is “inhibit gastric lesions”.

`Cc1cc(N2CCN(Cc3ccccn3)CC2=O)nn1Cc1cc(Cl)ccc1OCC(C)C` [Example 227, 1-[1-({5-Chloro-2-[(2-methylpropyl)oxy]phenyl}methyl)-5-methyl-1H-pyrazol-3-yl]-4-(2-pyridinylmethyl)-2-piperazinone dihydrochloride]: at human EP3 receptor, the Ki was 158 to 316 nM.

As for `Cc1cc(OC(=O)NC2CCCC2)nn1Cc1cc(Cl)ccc1OCC(C)C` [Example 52, 1-({5-Chloro-2-[(2-methylpropyl)oxy]phenyl}methyl)-5-methyl-1H-pyrazol-3-yl cyclopentylcarbamate], the Ki on human EP3 receptor is 158 to 316 nM.
